Measured values taken from ChEMBL document CHEMBL1143496, “Privileged structure based ligands for melanocortin receptors--substituted benzylic piperazine derivatives” (Bioorg Med Chem Lett, 2005).
pKi: −log10 of the molar value.

Target: Melanocortin receptor 4 (Homo sapiens, UniProt P32245)
Test: Inhibition of [125I]-NDP MSH binding to human Melanocortin 4 receptor

Melanocortin receptor 4, sequence (P32245 whole entry): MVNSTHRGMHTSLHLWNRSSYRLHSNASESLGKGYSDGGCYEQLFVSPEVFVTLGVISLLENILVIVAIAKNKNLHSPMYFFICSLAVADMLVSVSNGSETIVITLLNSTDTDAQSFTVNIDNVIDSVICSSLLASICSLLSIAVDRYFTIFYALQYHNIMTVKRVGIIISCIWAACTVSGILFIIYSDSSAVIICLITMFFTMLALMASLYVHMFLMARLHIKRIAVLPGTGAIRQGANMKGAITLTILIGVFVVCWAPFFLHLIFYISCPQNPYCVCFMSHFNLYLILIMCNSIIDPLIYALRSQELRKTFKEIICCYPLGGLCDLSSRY

SMILES | pKi
CC(c1ccccc1)N1CCN(C)CC1 (configuration not stated) | 6.15
CCN(CC)Cc1ccccc1N1CCN(C(=O)[C@@H](Cc2ccc(Cl)cc2)NC(=O)[C@H]2Cc3ccccc3CN2)CC1 | 7.85
CCN(CC)CC(CCc1ccccc1)N1CCN(C)CC1 (configuration not stated) | 6.89
CCN(CC(c1ccccc1F)N1CCN(C)CC1)S(C)(=O)=O (configuration not stated) | 6.80
CCN(CC)CC(c1ccccc1F)N1CCN(C)CC1 (configuration not stated) | 7.70
CCN(CC)C[C@H](c1ccccc1)N1CCN(C)CC1 | 6.72
CCN(CC)C[C@@H](c1ccccc1F)N1CCN(C)CC1 | 6.95
CCN(CC)CC(c1ccccc1OC)N1CCN(C)CC1 (configuration not stated) | 6.72
CCN(CC)CC(c1c(F)cccc1F)N1CCN(C)CC1 (configuration not stated) | 6.82
CCN(CC)CC(c1ccc(F)cc1F)N1CCN(C)CC1 (configuration not stated) | 7.00
CCN(CC)CC(c1ccccc1C)N1CCN(C)CC1 (configuration not stated) | 7.15
CCN(CC)CC(c1ccccc1)N1CCN(C)CC1 (configuration not stated) | 7.05
CCN(CC)C[C@@H](c1ccccc1)N1CCN(C)CC1 | 7.30
CCN(CC(c1ccccc1F)N1CCN(C)CC1)C(=O)OC (configuration not stated) | 6.58
COC(=O)NCC(c1ccccc1F)N1CCN(C)CC1 (configuration not stated) | 6.32
CCN(CC)CC(c1ccccc1C(F)(F)F)N1CCN(C)CC1 (configuration not stated) | 7.40
CCN(CC)CC(Cc1ccccc1)N1CCN(C)CC1 (configuration not stated) | 7.40
CCN(CC)C[C@H](c1ccccc1F)N1CCN(C)CC1 | 7.85
CCN(CC)CC(c1ccc(C(F)(F)F)cc1)N1CCN(C)CC1 (configuration not stated) | 6.70
CC(=O)NCC(c1ccccc1F)N1CCN(C)CC1 (configuration not stated) | 6.33
CN1CCN(C(CNS(C)(=O)=O)c2ccccc2F)CC1 (configuration not stated) | 6.33
CCN(CC)CC(c1ccccc1Cl)N1CCN(C)CC1 (configuration not stated) | 7.15
CCN(CC(c1ccccc1F)N1CCN(C)CC1)C(C)=O (configuration not stated) | 6.97
CN1CCN(Cc2ccccc2)CC1 | 5.70
CCN(CC)CC(CCCc1ccccc1)N1CCN(C)CC1 (configuration not stated) | 6.96
CCN(CC)CC(c1cccc(C(F)(F)F)c1)N1CCN(C)CC1 (configuration not stated) | 6.82
CCN(CC)C(=O)C(c1ccccc1F)N1CCN(C)CC1 (configuration not stated) | 6.90
